Reference: ChEMBL document CHEMBL1127136, “Vinylogous vs arylogous isocephems” (1993)
Converted amounts (≈) assume the structure as drawn.

How the values were obtained:
[1] = test system: Staphylococcus sp.; assay: Antibacterial activity against staphylococci was determined.; assay type: functional
[2] = test system: Enterobacteriaceae; assay: Antibacterial activity against enterobacteriaceae was determined.; assay type: functional

CO/N=C(/C(=O)N[C@@H]1C(=O)N2C(C(=O)[O-])=C(C[n+]3cccc4ccsc43)SC[C@H]12)c1csc(N)n1
MIC [1]: 0.76 µg/mL (≈ 1.43 µM)
MIC [2]: 0.12 µg/mL (≈ 0.226 µM)

CO/N=C(/C(=O)N[C@@H]1C(=O)N2C(C(=O)O)=C(/C=C/C=C/CSc3nnnn3C)SC[C@H]12)c1csc(N)n1
MIC [1]: 5 µg/mL (≈ 8.87 µM)
MIC [2]: 1.5 µg/mL (≈ 2.66 µM)

CO/N=C(/C(=O)N[C@@H]1C(=O)N2C(C(=O)[O-])=C(/C=C/C[n+]3cccc4ccsc43)SC[C@H]12)c1csc(N)n1
MIC [1]: 0.12 µg/mL (≈ 0.216 µM)
MIC [2]: 0.03 µg/mL (≈ 0.0539 µM)

CO/N=C(/C(=O)N[C@@H]1C(=O)N2C(C(=O)O)=C(CSc3nnnn3C)SC[C@H]12)c1csc(N)n1
MIC [1]: 15.9 µg/mL (≈ 31.1 µM)
MIC [2]: 0.4 µg/mL (≈ 0.782 µM)

CO/N=C(/C(=O)N[C@@H]1C(=O)N2C(C(=O)[O-])=C(/C=C/c3cc[n+](C)cc3)SC[C@H]12)c1csc(N)n1
MIC [1]: 0.8 µg/mL (≈ 1.6 µM)
MIC [2]: 0.3 µg/mL (≈ 0.599 µM)

CO/N=C(/C(=O)N[C@@H]1C(=O)N2C(C(=O)[O-])=C(/C=C/C#CC[n+]3ccccc3)SC[C@H]12)c1csc(N)n1
MIC [1]: 5 µg/mL (≈ 9.53 µM)
MIC [2]: 0.4 µg/mL (≈ 0.763 µM)

CO/N=C(/C(=O)N[C@@H]1C(=O)N2C(C(=O)O)=C(/C=C/CSc3nnnn3C)SC[C@H]12)c1csc(N)n1
MIC [1]: 2.5 µg/mL (≈ 4.65 µM)
MIC [2]: 0.14 µg/mL (≈ 0.26 µM)

CO/N=C(/C(=O)N[C@@H]1C(=O)N2C(C(=O)[O-])=C(/C=C/c3ccc(C[n+]4ccccc4)s3)SC[C@H]12)c1csc(N)n1
MIC [1]: 3.1 µg/mL (≈ 5.32 µM)
MIC [2]: 3.8 µg/mL (≈ 6.52 µM)

CO/N=C(/C(=O)N[C@@H]1C(=O)N2C(C(=O)[O-])=C(C[N+](C)(C)C)SC[C@H]12)c1csc(N)n1
MIC [1]: 10 µg/mL (≈ 22 µM)
MIC [2]: 0.28 µg/mL (≈ 0.616 µM)

CO/N=C(/C(=O)N[C@@H]1C(=O)N2C(C(=O)[O-])=C(/C=C\C[N+](C)(C)C)SC[C@H]12)c1csc(N)n1
MIC [1]: 10 µg/mL (≈ 20.8 µM)
MIC [2]: 1 µg/mL (≈ 2.08 µM)

CO/N=C(/C(=O)N[C@@H]1C(=O)N2C(C(=O)O)=C(/C=C/C=C/C[n+]3cccc4ccsc43)SC[C@H]12)c1csc(N)n1.O=C([O-])C(F)(F)F
MIC [1]: 0.38 µg/mL
MIC [2]: 0.12 µg/mL

CO/N=C(/C(=O)N[C@@H]1C(=O)N2C(C(=O)[O-])=C(/C=C/C[N+](C)(C)C)SC[C@H]12)c1csc(N)n1
MIC [1]: 1.2 µg/mL (≈ 2.5 µM)
MIC [2]: 0.19 µg/mL (≈ 0.395 µM)

CO/N=C(/C(=O)N[C@@H]1C(=O)N2C(C(=O)[O-])=C(/C=C/c3ccc(C[n+]4ccccc4)o3)SC[C@H]12)c1csc(N)n1
MIC [1]: 6.3 µg/mL (≈ 11.1 µM)
MIC [2]: 5.9 µg/mL (≈ 10.4 µM)

CO/N=C(/C(=O)N[C@@H]1C(=O)N2C(C(=O)[O-])=C(C[n+]3ccccc3)SC[C@H]12)c1csc(N)n1
MIC [1]: 2.5 µg/mL (≈ 5.27 µM)
MIC [2]: 0.2 µg/mL (≈ 0.421 µM)

CO/N=C(/C(=O)N[C@@H]1C(=O)N2C(C(=O)[O-])=C(/C=C/c3ccccc3C[n+]3ccccc3)SC[C@H]12)c1csc(N)n1
MIC [1]: 0.95 µg/mL (≈ 1.65 µM)
MIC [2]: 7.3 µg/mL (≈ 12.7 µM)

CO/N=C(/C(=O)N[C@@H]1C(=O)N2C(C(=O)[O-])=C(/C=C/c3cccc(C[n+]4ccccc4)c3)SC[C@H]12)c1csc(N)n1
MIC [1]: 2.5 µg/mL (≈ 4.34 µM)
MIC [2]: 8 µg/mL (≈ 13.9 µM)

CO/N=C(/C(=O)N[C@@H]1C(=O)N2C(C(=O)[O-])=C(/C=C/c3ccc(C[n+]4ccccc4)cc3)SC[C@H]12)c1csc(N)n1
MIC [1]: 6.3 µg/mL (≈ 10.9 µM)
MIC [2]: 3.9 µg/mL (≈ 6.76 µM)
